The values below come from ChEMBL document CHEMBL6092154, “Design, synthesis, and evaluation of a novel TRAIL-activated HDAC6 inhibitor for the treatment of pulmonary fibrosis” (Bioorg Med Chem, 2024).

The target of one series is Histone deacetylase 3 (Homo sapiens, UniProt O15379). The experiment in a line: Inhibition of HDAC3 (unknown origin) at 1 uM incubated for 30 mins by fluorometric analysis.
Series [1] relates to Mus musculus. The experiment in a line: Anti-pulmonary fibrosis activity in bleomycin-induced idiopathic pulmonary fibrosis C57BL/6J mouse model assessed as decrease in collagen I protein expression in lung at 50 mg/kg, ig administered daily via gavage measured after 14 days by western blot analysis. It counts as functional, organism-based. The conditions noted are these: time 14.0 day. For orientation: A western blot detects proteins with antibodies after separation by electrophoresis.

In series [2] the test system is Mus musculus. The experiment in a line: Anti-pulmonary fibrosis activity in bleomycin-induced idiopathic pulmonary fibrosis C57BL/6J mouse model assessed as decrease in lung damage by measuring decrease in inflammatory cell infiltration in lung at 25 to 50 mg/kg, ig administered daily via gavage and measured on day 14 by Hematoxylin-Eosin staining based analysis. Type of series: functional, organism-based. The conditions noted are these: dose 25-50 mg/kg, time 14.0 day.

Series [3] is described as follows: Toxicity against silicosis C57BL/6J mouse model assessed as effect on liver morphological changes at 50 mg/kg, ig administered daily via gavage and measured on day 28 by Hematoxylin-Eosin staining based analysis. The conditions noted are these: in vivo, po, 672 h, time 28 day. It counts as organism-based.
A further series concerns RPMI-8226. The experiment in a line: Increase in TRAIL protein expression in human RPMI-8226 cells at 0.5 uM incubated for 24 hrs by western blot analysis. Type of series: functional, cell-based.
Series [4] can be described thus: Toxicity against silicosis C57BL/6J mouse model assessed as ALT index in serum at 50 mg/kg, ig administered daily via gavage and measured on day 28. Type of series: organism-based. The conditions noted are these: in vivo, po, 672 h, time 28 day.
Series [5] can be described thus: Toxicity against silicosis C57BL/6J mouse model assessed as effect on heart morphological changes at 50 mg/kg, ig administered daily via gavage and measured on day 28 by Hematoxylin-Eosin staining based analysis. The conditions noted are these: in vivo, po, 672 h, time 28 day. Type of series: organism-based.

Calls of active or inactive are those of the source. No cut-off for these calls is given here.

Sequence of Histone deacetylase 3 (O15379 whole entry): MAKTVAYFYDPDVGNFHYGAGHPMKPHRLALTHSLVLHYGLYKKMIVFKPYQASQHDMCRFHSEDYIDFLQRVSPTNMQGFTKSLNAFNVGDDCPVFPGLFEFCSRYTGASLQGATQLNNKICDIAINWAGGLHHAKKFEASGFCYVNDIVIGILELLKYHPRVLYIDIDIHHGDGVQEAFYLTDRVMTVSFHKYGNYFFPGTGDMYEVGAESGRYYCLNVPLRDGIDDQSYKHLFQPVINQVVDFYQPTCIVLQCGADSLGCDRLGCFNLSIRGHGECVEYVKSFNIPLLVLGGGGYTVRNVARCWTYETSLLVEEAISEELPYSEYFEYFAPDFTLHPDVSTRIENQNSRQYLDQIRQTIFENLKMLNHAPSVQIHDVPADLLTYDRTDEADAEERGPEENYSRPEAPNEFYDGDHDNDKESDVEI

Broadly, the inhibition is how much of the control response was suppressed. A higher inhibition goes with strong suppression. At Histone deacetylase 3, `O=C(NO)c1ccc(CN2C(=O)C3=C(CCN(Cc4cccc(Cl)c4)C3)N3CCN=C23)cc1` had an inhibition of 50.8%. Further, the Activity entry was “Active; Superior Activity Compared To Positive Drug, Acy-1215” in the series on Mus musculus [1]; “Non-toxic” in series [3]; “Active; Comparable Activity To 1 Um Compound Iic And Greater Activity Compared To 1 Um Chidamide, Acy-1215” in the series on RPMI-8226; “Non-toxic” in series [4]; “Non-toxic” in series [5]. The result with Mus musculus [2] was Active.
